IC50 data for 43 compounds are collected here from patent publication US10688093B2, “Methods, compositions, and uses of novel Fyn kinase inhibitors” (priority 2015, dated 2020).

Each structure is given as a SMILES string.

This assay deals with full-length recombinant human FYN A (Homo sapiens (Human), UniProt P06241). Description: ADP-Glo Kinase Assay of FYN kinase inhibition. The assay is classed as biochemical. The settings on record: primary screen, initial compounds. In outline:
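ADP-Glo read-out of peptide phosphorylation after 90 min RT with 12.5 pmol ATP and 100 pg 12-mer substrate. Enzyme was N-GST full-length human FYN A from insect cells, 3 pg, pre-incubated 30 min with compound, 10 points from 10 μM top, 3-fold steps; IC50 from curve.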
In general terms: ADP-Glo first removes unused ATP, then detects ADP through luciferase.

full-length recombinant human FYN A, sequence (P06241 whole entry): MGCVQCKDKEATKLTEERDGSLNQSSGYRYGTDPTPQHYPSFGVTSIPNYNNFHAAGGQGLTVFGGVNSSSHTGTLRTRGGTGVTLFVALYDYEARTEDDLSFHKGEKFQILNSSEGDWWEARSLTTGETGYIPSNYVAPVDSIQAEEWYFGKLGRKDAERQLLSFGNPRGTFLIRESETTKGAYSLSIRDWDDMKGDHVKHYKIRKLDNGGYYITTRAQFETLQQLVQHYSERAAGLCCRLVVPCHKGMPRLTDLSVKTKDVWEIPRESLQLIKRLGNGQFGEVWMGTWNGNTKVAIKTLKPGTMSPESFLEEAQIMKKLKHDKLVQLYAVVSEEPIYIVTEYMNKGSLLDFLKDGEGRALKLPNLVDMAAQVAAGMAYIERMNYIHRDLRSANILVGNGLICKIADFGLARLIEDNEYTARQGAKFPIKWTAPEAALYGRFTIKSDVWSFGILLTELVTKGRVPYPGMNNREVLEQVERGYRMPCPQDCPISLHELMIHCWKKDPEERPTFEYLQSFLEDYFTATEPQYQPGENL

By IC50 is commonly meant the concentration that inhibits the measured activity by half. As for `COc1cc(-c2cc(-c3cccc(F)c3)cnc2N)ccc1O` [382_0314_0313, 4-[2-amino-5-(3-fluorophenyl)-3-pyridyl]-2-methoxy-phenol], the IC50 was found to be 2030 nM.

Turning to `COc1cc(-c2cc(-c3cc(C)c(O)c(C)c3)cnc2N)ccc1O` [382_0314_0315, 4-[6-amino-5-(4-hydroxy-3-methoxy-phenyl)-3-pyridyl]-2,6-dimethyl-phenol], the concentration for half-maximal inhibition (IC50) was 526 nM.

On to `COc1cc(-c2cc(-c3ccc(F)cc3)cnc2N)ccc1O` [382_0314_0339, 4-[2-amino-5-(4-fluorophenyl)-3-pyridyl]-2-methoxy-phenol], for which the concentration for half-maximal inhibition (IC50) worked out at 3240 nM.

Consider `COc1cc(-c2cc(-c3ccc(C)cc3)cnc2N)ccc1O` [382_0314_4139, 4-[2-amino-5-(p-tolyl)-3-pyridyl]-2-methoxy-phenol], for which the IC50 amounted to 4340 nM.

On to `COc1cccc(-c2cnc(N)c(-c3ccc(O)c(OC)c3)c2)c1` [382_0314_4140, 4-[2-amino-5-(3-methoxyphenyl)-3-pyridyl]-2-methoxy-phenol], for which the IC50 is 1200 nM.

For `COCOc1ccc(-c2cc(-c3cccc(NC(C)=O)c3)cnc2N)cc1` [382_0341_0081], the IC50 worked out at 1550 nM.

Take `COCOc1ccc(-c2cc(-c3cc(OC)c(OC)c(OC)c3)cnc2N)cc1` [382_0341_0087, 3-[4-(methoxymethoxy)phenyl]-5-(3,4,5-trimethoxy-phenyl)pyridin-2-amine]: the IC50 was 1900 nM.

For the compound `COCOc1ccc(-c2cc(-c3cccc(CO)c3)cnc2N)cc1` [382_0341_0291, [3-[6-amino-5-[4-(methoxymethoxy)phenyl]-3-pyridyl]phenyl] methanol], the IC50 was 4620 nM.

In the case of `COCOc1ccc(-c2cc(-c3ccc(C(N)=O)cc3)cnc2N)cc1` [382_0341_0346, 4-[6-amino-5-[4-(methoxy-methoxy)phenyl]-3-pyridyl] benzamide], the IC50 was found to be 3420 nM.

For the compound `COCOc1ccc(-c2cc(-c3cccc(C(N)=O)c3)cnc2N)cc1` [382_0341_0347, 3-[6-amino-5-[4-(methoxymethoxy)phenyl]-3-pyridyl]benzamide], the IC50 amounted to 3020 nM.

Regarding `CC(=O)Nc1cccc(-c2cnc(N)c(-c3ccc(O)cc3)c2)c1` [382_7249_0081, N-[3-[6-amino-5-(4-hydroxyphenyl)-3-pyridyl]phenyl] acetamide], the IC50 was 838 nM.

In the case of `COc1cc(-c2cnc(N)c(-c3ccc(O)cc3)c2)cc(OC)c1OC` [382_7249_0087, 4-[2-amino-5-(3,4,5-trimethoxy-phenyl)-3-pyridyl]phenol], the IC50 came to 209 nM.

On to `CN(C)c1cccc(-c2cnc(N)c(-c3ccc(O)cc3)c2)c1` [382_7249_0135, 4-[2-amino-5-[3-(dimethylamino)phenyl]-3-pyridyl]phenol], for which the IC50 came to 2190 nM.

On to `CS(=O)(=O)c1ccc(-c2cnc(N)c(-c3ccc(O)cc3)c2)cc1` [382_7249_0174, 4-[2-amino-5-(4-methylsulfonyl-phenyl)-3-pyridyl]phenol], for which the IC50 came out at 1250 nM.

As to `COc1cccc(-c2cnc(N)c(-c3ccc(O)cc3)c2)c1` [382_7249_4140, 4-[2-amino-5-(3-methoxyphenyl)-3-pyridyl]phenol], the 50% inhibitory concentration (IC50) was 3490 nM.

With `CN(C)CCNC(=O)c1ccc(-c2cn3c(-c4ccncc4)cnc3cn2)cc1` [388_0069_0327, N-(2-dimethylamino-ethyl)-4-[3-(4-pyridyl)imidazo [1,2-a]pyrazin-6-yl]benzamide], the IC50 is 6910 nM.

For `c1ccc(-c2cn3c(-c4ccsc4)cnc3cn2)cc1` [388_0074_0061, 6-phenyl-3-(3-thienyl)imidazo [1,2-a]pyrazine], the IC50 was determined as 3950 nM.

Turning to `c1cncc(-c2cn3c(-c4ccsc4)cnc3cn2)c1` [388_0074_0071, 6-(3-pyridyl)-3-(3-thienyl)imidazo [1,2-a]pyrazine], the IC50 was 4340 nM.

Consider `OCc1ccc(-c2cn3c(-c4ccsc4)cnc3cn2)cc1` [388_0074_0285, [4-[3-(3-thienyl)imidazo [1,2-a]pyrazin-6-yl]phenyl] methanol], for which the half-maximal inhibitory concentration (IC50) turned out to be 2350 nM.

As for `Cn1cc(-c2cn3c(-c4ccsc4)cnc3cn2)cn1` [388_0074_8400, 6-(1-methylpyrazol-4-yl)-3-(3-thienyl)imidazo [1,2-a]pyrazine], the IC50 is 6380 nM.

For `CC(C)N1CCN(c2ccc(-c3cn4c(-c5ccc(O)cc5)cnc4cn3)cc2)CC1` [388_0080_0182, 4-[6-[4-(4-isopropyl-piperazin-1-yl)phenyl]imidazo [1,2-a]pyrazin-3-yl]phenol], the IC50 was 637 nM.

Consider `O=C(NCCO)c1cccc(-c2cn3c(-c4ccc(O)cc4)cnc3cn2)c1` [388_0080_0192, N-(2-hydroxy-ethyl)-3-[3-(4-hydroxyphenyl)imidazo[1,2-a]pyrazin-6-yl]benzamide], for which the half-inhibitory concentration (IC50) is 1030 nM.

`CN1CCN(c2ccc(-c3cn4c(-c5ccc(O)cc5)cnc4cn3)cc2)CC1` [388_0080_0218, 4-[6-[4-(4-methyl-piperazin-1-yl)phenyl]imidazo [1,2-a]pyrazin-3-yl]phenol]: the IC50 came to 678 nM.

For `O=C(NCCO)c1ccc(-c2cn3c(-c4ccc(O)cc4)cnc3cn2)cc1` [388_0080_0328, N-(2-hydroxyethyl)-4-[3-(4-hydroxyphenyl)imidazo[1,2-a]pyrazin-6-yl]benzamide], the IC50 was determined as 641 nM.

Consider `CN(C)C(=O)c1cccc(-c2cn3c(-c4ccc(O)cc4)cnc3cn2)c1` [388_0080_0349, 3-[3-(4-hydroxyphenyl)imidazo[1,2-a]pyrazin-6-yl]-N,N-dimethyl-benzamide], for which the IC50 stood at 974 nM.

In the case of `Oc1ccc(-c2cnc3cnc(-c4cnn(Cc5ccccc5)c4)cn23)cc1` [388_0080_7469, 4-[6-(1-benzylpyrazol-4-yl)imidazo[1,2-a]pyrazin-3-yl]phenol], the IC50 is 6620 nM.

`O=C(NC1CC1)c1ccc(-c2cn3c(-c4ccc(O)cc4)cnc3cn2)cc1` [388_0080_7489, N-cyclopropyl-4-[3-(4-hydroxyphenyl)imidazo[1,2-a]pyrazin-6-yl]benzamide]: the IC50 is 1960 nM.

Consider `Nc1ccc(-c2cn3c(-c4ccc(O)cc4)cnc3cn2)cn1` [388_0080_7905, 4-[6-(6-amino-3-pyridyl)imidazo [1,2-a]pyrazin-3-yl]phenol], for which the IC50 was determined as 1930 nM.

Take `COc1cc(-c2cnc3cnc(-c4cccc(NS(C)(=O)=O)c4)cn23)cc(OC)c1OC` [388_0087_6488, N-[3-[3-(3,4,5-trimethoxyphenyl)imidazo[1,2-a]pyrazin-6-yl]phenyl] methane-sulfonamide]: the IC50 came to 2800 nM.

As to `COc1ccc(-c2cnc3cnc(-c4ccc(O)cc4)cn23)cc1` [388_0280_0080, 4-[3-(4-methoxyphenyl)imidazo[1,2-a]pyrazin-6-yl]phenol], the IC50 amounted to 10500 nM.

As for `COc1cc(-c2cnc3cnc(-c4ccc(NCCN5CCOCC5)nc4)cn23)ccc1O` [388_0314_0003, 2-methoxy-4-[6-[6-(2-morpholinoethyl-amino)-3-pyridyl]imidazo [1,2-a]pyrazin-3-yl]phenol], the half-maximal inhibitory concentration (IC50) stood at 1350 nM.

As for `COc1cc(-c2cnc3cnc(-c4ccccc4N(C)C)cn23)ccc1O` [388_0314_0006, 4-[6-[2-(dimethylamino)phenyl]imidazo [1,2-a]pyrazin-3-yl]-2-methoxy-phenol], the IC50 came to 1750 nM.

As for `COc1cc(-c2cnc3cnc(-c4ccc(N5CCN(C)CC5)nc4)cn23)ccc1O` [388_0314_0016, 2-methoxy-4-[6-[6-(4-methylpiperazin-1-yl)-3-pyridyl]imidazo [1,2-a]pyrazin-3-yl]phenol], the IC50 was determined as 1130 nM.

Take `COc1cc(-c2cnc3cnc(-c4cccnc4)cn23)ccc1O` [388_0314_0071, 2-methoxy-4-[6-(3-pyridyl)imidazo[1,2-a]pyrazin-3-yl]phenol]: the IC50 is 3070 nM.

For `COc1cc(-c2cnc3cnc(-c4ccc(C(=O)NCCCN(C)C)cc4)cn23)ccc1O` [388_0314_0180, N-[3-(dimethylamino)propyl]-4-[3-(4-hydroxy-3-methoxy-phenyl)imidazo [1,2-a]pyrazin-6-yl]benzamide], the IC50 was 606 nM.

`COc1cc(-c2cnc3cnc(-c4cccc(C(=O)NCCO)c4)cn23)ccc1O` [388_0314_0192, N-(2-hydroxyethyl)-3-[3-(4-hydroxy-3-methoxy-phenyl)imidazo [1,2-a]pyrazin-6-yl]benzamide]: the IC50 stood at 896 nM.

For `CCOc1cccc(-c2cn3c(-c4ccc(O)c(OC)c4)cnc3cn2)c1` [388_0314_0205, 4-[6-(3-ethoxyphenyl)imidazo[1,2-a]pyrazin-3-yl]-2-methoxy-phenol], the IC50 came to 1360 nM.

On to `COc1cc(-c2cnc3cnc(-c4ccc(C(=O)NCCN(C)C)cc4)cn23)ccc1O` [388_0314_0327, N-(2-dimethylamino-ethyl)-4-[3-(4-hydroxy-3-methoxy-phenyl)imidazo [1,2-a]pyrazin-6-yl]benzamide], for which the concentration for half-maximal inhibition (IC50) was determined as 440 nM.

`COc1cc(-c2cnc3cnc(-c4ccccc4Cl)cn23)ccc1O` [388_0314_4027, 4-[6-(2-chlorophenyl)imidazo[1,2-a]pyrazin-3-yl]-2-methoxy-phenol]: the concentration for half-maximal inhibition (IC50) was found to be 2540 nM.

For the compound `COc1cc(-c2cnc3cnc(-c4ccc(N)nc4)cn23)ccc1O` [388_0314_7905, 4-[6-(6-amino-3-pyridyl)imidazo [1,2-a]pyrazin-3-yl]-2-methoxy-phenol], the IC50 is 1410 nM.

Regarding `COc1cc(-c2cnc3cnc(-c4cnn(C)c4)cn23)ccc1O` [388_0314_8400, 2-methoxy-4-[6-(1-methylpyrazol-4-yl)imidazo[1,2-a]pyrazin-3-yl]phenol], the concentration for half-maximal inhibition (IC50) is 746 nM.

For `CC(=O)c1cccc(-c2cnc3cnc(-c4ccc(C(=O)NCCN(C)C)cc4)cn23)c1` [388_4145_0327, 4-[3-(3-acetylphenyl)imidazo[1,2-a]pyrazin-6-yl]-N-(2-dimethyl-aminoethyl) benzamide], the IC50 was 4070 nM.

For `Oc1ccc(-c2cn3c(-c4cccs4)cnc3cn2)cc1` [388_4147_0080, 4-[3-(2-thienyl)imidazo [1,2-a]pyrazin-6-yl]phenol], the IC50 is 6250 nM.
